Literature values in patent US20190209552A1, “PHARMACEUTICAL COMPOSITION OF [ (3-HYDROXY-4 -PYRON-2-YL) METHYL] -AMINE DERIVATIVES AND DNA DEMETHYLATING AGENTS AND THEIR USE AS ANTI-NEOPLASTIC DRUGS” (UNIVERSITA' DEGLI STUDI DI URBINO "CARLO BO", priority 2016, published 2019).

Key:
Ewing's sarcoma [1] = system: Ewing's sarcoma
Ewing's sarcoma [2] = system: Ewing's sarcoma; remark: listed apart in the source

**Q.** What does the source list for `CN1CCN(Cc2occc(=O)c2O)CCN(C)CCN(Cc2occc(=O)c2O)CC1` [Maltonis, 4(N), 10(N)-bis [(3-hydroxy-4-Pyron-2-yl)methyl]-1,7-dimethyl-1,4,7,10tetraazacyclododecane]?
**A.** efficacy in vitro (Ewing's sarcoma [1]): effective; efficacy in vivo (Ewing's sarcoma [2]): effective
